From US10919869B2, “Thiazole derivative and applications” (EAST CHINA UNIVERSITY OF SCIENCE AND TECHNOLOGY, priority 2016, dated 2021) come the findings set out here.

Like-named read-outs stand apart in the source and are kept apart here.

The target of experiment [1] is hsDHODH (Homo sapiens (Human), UniProt Q02127). The experiment is described as follows: Activity test at enzyme level: DHODH inhibition, DCIP absorbance at 600 nm. The experiment is classed as biochemical. The protocol: Culture and Purification of hsDHODH Protein
Sequence of hsDHODH (Q02127 whole entry): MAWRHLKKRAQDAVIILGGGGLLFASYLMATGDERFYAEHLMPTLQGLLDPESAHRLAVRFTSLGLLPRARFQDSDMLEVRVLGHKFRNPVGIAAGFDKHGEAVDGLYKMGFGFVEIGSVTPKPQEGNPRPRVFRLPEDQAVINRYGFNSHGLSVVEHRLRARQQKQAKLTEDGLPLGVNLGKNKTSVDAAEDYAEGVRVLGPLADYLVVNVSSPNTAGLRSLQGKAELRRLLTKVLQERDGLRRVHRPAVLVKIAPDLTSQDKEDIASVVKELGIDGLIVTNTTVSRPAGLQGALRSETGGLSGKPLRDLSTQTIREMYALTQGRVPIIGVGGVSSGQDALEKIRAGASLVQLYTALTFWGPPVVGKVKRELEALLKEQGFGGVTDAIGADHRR
The correctly sequenced recombinant plasmid pET-19b-DHODH was transformed into competent E. coli BL21 (DE3), and cultured on LB plate containing ampicillin. Colonies were randomly selected, inoculated into LB medium containing […], and incubate overnight at 37° C., 230 rpm. The cells were inoculated at a ratio of 1:200 in 500 mL of LB medium containing […] and expanded at 37° C., 230 rpm. When the OD value of the cells reached 0.8-1, IPTG was added into the medium to a final concentration of IPDG of 0.5 mM, and expression was induced overnight at 25° C. The induced cells were collected by centrifugation at […], 4° C., washed with deionized water, and centrifuged again to collect the bacterial pellet, which was stored at −80° C.
Purification of protein: cells were re-suspended in lysis liquid containing 50 mM HEPES (pH 8.0), 0.15 M NaCl, 10 mM imidazole, 10% glycerol, 0.1% Triton X-100, and a small amount of soy protease inhibitor added. After re-suspended and mixed homogeneously, cells were ultrasonically disrupted. The disruption solution was centrifuged for 30 min, and the supernatant and precipitate were taken for protein electrophoresis to determine the form of protein. The supernatant was loaded onto a Ni-NTA column, and the pass-through liquid was collected, and then the resin was washed for 3-4 times with a lysis liquid containing 20 mM imidazole, and finally eluted with a lysis liquid containing 300 mM imidazole. After elution, protein solution was collected. 10 μL of the above protein sample was taken for SDS-PAGE electrophoresis to determine the content of target protein. Finally, the eluted protein solution is dialyzed in the dialysis liquid to remove imidazole, thereby obtaining a pure protein.
Method for Testing Activities of Compounds at Enzyme Level
Principles of activity test at enzyme level: firstly, dihydroorotate (DHO) is oxidatively dehydrogenated by DHODH to form orotic acid (Orotate, OA), accompanied by reduction of Flavin mononucleotide (FMN) into reduced flavin mononucleotide (FMNH2) by accepting 2H+ and 2e−, then coenzyme Q (CoQ) as hydrogen acceptor accepting electron and proton from FMNH2 is reduced into reduced coenzyme Q (CoQH2), reduced coenzyme Q transfers electrons to a chromogenic substrate, […] (DCIP), and finally DCIP was reduced. […] The degree to which the substrate DHO is oxidized can be judged based on the degree of decrease in absorbance. The degree of oxidation of the substrate DHO per unit time is the initial rate of the enzymatic reaction. Upon addition of a inhibitor, the initial rate of the enzymatic reaction is reduced.
Substrate DHO was added to start the reaction with a DHO final concentration of 500 μM. The absorbance was read at 600 nm using a BioTek microplate reader and read every 30 s for 6 min. […] For calculating IC50 of a compound, Origin 8.0 was used to test the inhibition rate at least 8 concentrations.

Experiment [2] concerns CIA model rats. The experiment is described as follows: Pharmacodynamic evaluation on rheumatoid arthritis model (type II collagen-induced arthritis, CIA). The experiment is classed as in vivo, Wistar rat. Conditions: CIA Wistar rats; for degree of joint swelling: FIG. 2B; for gain of body weight: intraperitoneal injection, FIG. 2A. The protocol:
The animal model used in this experiment was a type II collagen-induced arthritis animal model (CIA) established by using Wistar rat. On the 0 and 7th day of the experiment, rats were subcutaneously injected with a mixed solution of Bovine II Collagen (CII) and Incomplete Freund's Adjuvant (IFA) to establish a rat model of arthritis.
In the pharmacodynamic test of Compound 1, Compound 1 and the positive drug, methotrexate were dissolved in a solvent system consisting of dimethyl sulfoxide (DMSO), polyethylene glycol 400 (PEG 400) and physiological saline at a volume ratio of 1:10:9.
During the administration to the rats (day 0 to 27 of the experiment), the body weight of a rat was weighed every three days, and the growth was observed. After the joints of the rat began to swell, the degree of joint swelling was scored every two days.
Because the incidence of inflammation in fore paw is low and the hind paws are more prone to swelling and the degree of swelling is more serious, the sum of the scores of two hind paws is used to evaluate the incidence of arthritis in rats. The maximum sum of score is 8 points.
In this experiment, Wistar rats were used to establish a CIA animal model. Joints were taken on the 28th day for subsequent fixation, paraffin embedding, section, staining and histopathological observation. The experiment results are shown as follows: During the experiment, the weight of rats in the control group continued to increase.

[3] abbreviates: pharmaceutically acceptable esters (prodrugs of A and B series), hsDHODH enzyme test, read-out: IC50.

By IC50 is commonly meant the concentration needed to halve the response being measured. Regarding `CN(/N=C/c1ccccc1C(=O)O)c1nc(-c2ccccc2Cl)cs1` [Compound 1, (E)-4-(2-chlorophenyl)-2-[1-methyl-2-(2-carboxybenzylidene)hydrazino]thiazole], the IC50 in experiment [1] (purified DHODH 10 nM, DHO 500 μM, CoQ 100 μM, DCIP 120 μM, read-out: IC50 (μM) hsDHODH) came to 0.0097 ± 0.0001 µM. For the same molecule, the “degree of joint swelling” value is listed as “significantly reduced” in experiment [2] (5 mg/kg intraperitoneal, compared with model group) and “more significantly reduced” in experiment [2] (30 mg/kg intraperitoneal, compared with model group). Moreover, the “gain of body weight” value in experiment [2] (compared with model group) was “improve the condition of the rats and the slow gain of body weight”. The “histopathological features of joint tissue (HE staining)” value in experiment [2] (joints taken on day 28, FIG. 3) was “significantly alleviated”. In addition, in experiment [2] (tissue sections, compared with model group), the “synovial hyperplasia and inflammatory cell infiltration” value was “greatly improved”.

For `CCC(C)OC(=O)c1ccccc1/C=N/N(C)c1nc(-c2ccccc2Cl)cs1` (centres unmarked) [Compound B5, (E)-4-(2-chlorophenyl)-2-[1-methyl-2-(2-(2-butoxy)formylbenzylidene)hydrazino]thiazole], the half-inhibitory concentration (IC50) in experiment [1] (setting [3]) is more than 50 µM. On the same count and under the same terms, as for `CCCCCOC(=O)c1ccccc1/C=N/N(C)c1nc(-c2ccccc2Cl)cs1` [Compound B6, (E)-4-(2-chlorophenyl)-2-[1-methyl-2-(2-pentyloxyformylbenzylidene)hydrazino]thiazole], the figure is more than 50 µM; as for `CCCCCCOC(=O)c1ccccc1/C=N/N(C)c1nc(-c2ccccc2Cl)cs1` [Compound B7, (E)-4-(2-chlorophenyl)-2-[1-methyl-2-(2-hexyloxyformylbenzylidene)hydrazino]thiazole], more than 50 µM; as for `CN(/N=C/c1ccccc1C(=O)OC1CCCCC1)c1nc(-c2ccccc2Cl)cs1` [Compound B8, (E)-4-(2-chlorophenyl)-2-[1-methyl-2-(2-cyclohexyloxyformylbenzylidene)hydrazino]thiazole], more than 50 µM. On the same count and under the same terms, the figure for `CN(/N=C/c1ccccc1C(=O)OCOC(=O)C(C)(C)C)c1nc(-c2ccccc2Cl)cs1` [Compound B10, (pivaloyloxy)methyl (E)-2-((2-(4-(2-chlorophenyl)thiazol-2-yl)-2-methylhydrazono)methyl)benzoate] is more than 50 µM.

In the case of `CC(C)OC(=O)OCOC(=O)c1ccccc1/C=N/N(C)c1nc(-c2ccccc2Cl)cs1` [Compound B11, ((isopropoxycarbonyl)oxy)methyl (E)-2-((2-(4-(2-chlorophenyl)thiazol-2-yl)-2-methylhydrazono)methyl)benzoate], the IC50 in experiment [1] (setting [3]) was more than 50 µM. As to `CN(Cc1cnc2nc(N)nc(N)c2n1)c1ccc(C(=O)N[C@@H](CCC(=O)O)C(=O)O)cc1` [Methotrexate, reference compound], the “degree of joint swelling” value in experiment [2] (0.3 mg/kg intraperitoneal, positive drug) is “significantly reduce the degree of joint swelling”. In experiment [2] (compared with model group), the “gain of body weight” value was “improve the condition of the rats and the slow gain of body weight”.
